Read-outs that look alike come from different tables or passages of the source.
What was measured:
LNCaP cells = format: cell-based, human; details: six days; for growth of LNCaP cells in the presence of DHT: 10 nM DHT; for proliferation of LNCaP cells: absence of DHT, TCDD 1-100 nM
Method: After trypsinization and low-speed centrifugation, LNCaP cells were resuspended and counted using a Coulter cell counter (Beckman Coulter, Fullerton, Calif.). Cells were seeded at a density of 5×10^4/35-mm well using DME-F12 without phenol red, supplemented with 2.5% charcoal-stripped fetal bovine serum (FBS). Twenty-four hours after seeding, initial treatment was applied and then subsequently reapplied with fresh medium every two days until harvesting by trypsinization. Cells were counted after harvesting using a Coulter counter.

22Rv1 cells = assay: Growth inhibition of 22Rv1 prostate cancer cells; format: cell-based
Method: 22Rv1 cells were treated with various concentrations of TCDD.
In a second study, 22Rv1 cells were maintained in 10% serum, and various concentrations of 6-MCDF were added to the cells.

AR [1] = biological target: T1, AR (Homo sapiens, UniProt P10275, T878A); format: cell-based; details: LNCaP; for effect on DHT-induced luciferase activity: pARR3, cotreatment with DHT; for effect on E2-induced luciferase activity: pARR3, cotreatment with E2
T1 construct: AR protein levels in whole cell lysates were determined by Western blot analysis; endogenous in cells; host or cells: LNCaP
T1 sequence (P10275 1-920 T878A): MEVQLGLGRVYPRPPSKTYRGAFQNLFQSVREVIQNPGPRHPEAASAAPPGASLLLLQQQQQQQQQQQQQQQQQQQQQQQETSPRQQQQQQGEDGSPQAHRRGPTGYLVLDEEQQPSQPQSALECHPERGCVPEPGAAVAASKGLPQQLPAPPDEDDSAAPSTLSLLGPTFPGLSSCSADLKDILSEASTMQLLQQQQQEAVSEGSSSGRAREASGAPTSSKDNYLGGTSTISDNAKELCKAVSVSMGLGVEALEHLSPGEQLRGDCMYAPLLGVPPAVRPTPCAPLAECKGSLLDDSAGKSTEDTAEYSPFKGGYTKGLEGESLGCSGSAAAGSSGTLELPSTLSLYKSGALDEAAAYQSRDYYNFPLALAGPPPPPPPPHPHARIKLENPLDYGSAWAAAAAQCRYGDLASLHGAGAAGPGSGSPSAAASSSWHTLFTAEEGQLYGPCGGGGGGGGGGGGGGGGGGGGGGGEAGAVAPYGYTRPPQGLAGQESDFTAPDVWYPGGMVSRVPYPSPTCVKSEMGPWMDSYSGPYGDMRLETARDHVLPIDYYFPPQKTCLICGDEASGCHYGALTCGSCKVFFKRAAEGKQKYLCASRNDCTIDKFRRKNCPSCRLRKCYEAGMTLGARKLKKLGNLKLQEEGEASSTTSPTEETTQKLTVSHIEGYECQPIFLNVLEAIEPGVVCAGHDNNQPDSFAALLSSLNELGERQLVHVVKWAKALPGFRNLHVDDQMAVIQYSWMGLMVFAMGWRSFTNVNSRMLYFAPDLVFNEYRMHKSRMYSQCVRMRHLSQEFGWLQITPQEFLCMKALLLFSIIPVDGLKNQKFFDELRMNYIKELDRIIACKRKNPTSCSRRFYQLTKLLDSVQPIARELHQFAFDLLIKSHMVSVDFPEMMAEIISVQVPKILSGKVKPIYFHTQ
Method: (§1) After 24 h, cells were transfected using Lipofectamine and Plus reagents (Invitrogen) according to manufacturer's instructions. LNCaP and ZR-75 cells were transfected with 500 ng/well of either reporter plasmid, and 250 ng/well of pcDNA3.1-β-gal (Invitrogen) as the internal control. In addition, ZR-75 cells were transfected with 500 ng hAR. Twenty-four hours after treatment, cells were harvested by scraping with 200 μL/well of reporter lysis buffer. Lysates were centrifuged at 40,000 g and luciferase and β-galactosidase activity was assayed with 30 μL of the supernatant extract per sample using a Lumicount luminometer (PerkinElmer, Boston, Mass.). Luciferase activity was normalized to β-galactosidase activity for each transfection well.
Next, LNCaP cells were transfected with pARR3 construct that contained three tandem (3) copies of the probasin androgen response element. The transfected cells were treated with hormone or AhR agonist alone or in combination and luciferase activity was determined as described in the above examples.

[2] = tested on: androgen-responsive probasin gene promoter (pPB); format: cell-based, human; details: ZR-75 cells, pPB alone
Method: as §1, with “ZR-75 human breast cancer and LNCaP human prostate cancer cells were obtained from American Type Culture Collection (Manassas, Va.) and were maintained in RPMI 1640 medium supplemented with 10% FBS, 1% antibiotic/antimycotic solution, 1.5 g/L sodium bicarbonate, and 10 mM HEPES, final pH of 7.4. Cells were seeded at 2.75×10^5 per 22-mm well in DME-F12 without phenol red, supplemented with 2.5% charcoal-stripped fetal bovine serum (FBS). After” for “After”

AR [3] = biological target: T1, AR; format: cell-based; details: LNCaP, pPB; for effect on E2-induced luciferase activity: cotreatment with 10 nM E2
Method: as §1
The transfected cells were then treated with hormone or AhR agonist alone or in combination and luciferase activity was determined as described in the above examples.

SMILES: Cc1cc(Cl)cc2c1oc1cc(Cl)cc(Cl)c12 [6-MCDF, 6-methyl-1,3,8-trichlorodibenzofuran]
- growth of LNCaP cells in the presence of DHT (LNCaP cells): inhibited growth
- proliferation of LNCaP cells (LNCaP cells): growth inhibition was also observed
- 22Rv1 cell proliferation (22Rv1 cells; cells maintained in 10% serum, various concentrations): concentration-dependent decrease
- effect on DHT-induced luciferase activity (AR [1]): did not decrease
- effect on E2-induced luciferase activity (AR [1]): not a significant decrease
- reporter gene activity [2]: did not activate
- effect on E2-induced luciferase activity (AR [3]; HPTE 10 μM): significantly decreased
- induction of luciferase activity by AhR agonist alone (AR [3]; MCDF 2 μM): did not significantly induce activity

SMILES: Clc1cc2c(cc1Cl)Oc1cc(Cl)c(Cl)cc1O2 [TCDD, 2,3,7,8-tetrachloro-p-dioxin]
- growth of LNCaP cells in the presence of DHT (LNCaP cells): inhibited growth
- proliferation of LNCaP cells (LNCaP cells): significantly inhibited
- testosterone-induced growth of 22Rv1 cells (22Rv1 cells; 1 nM): inhibited
- constitutive growth of 22Rv1 cells (22Rv1 cells; 1 nM alone): inhibited
- effect on DHT-induced luciferase activity (AR [1]): did not decrease
- effect on E2-induced luciferase activity (AR [1]): not a significant decrease
- reporter gene activity [2]: did not activate
- effect on DHT-induced luciferase activity (AR [3]; cotreatment with 10 nM DHT, MCDF 2 μM, HPTE 10 μM): significantly inhibited
- effect on E2-induced luciferase activity (AR [3]; HPTE 10 μM): significantly decreased
- induction of luciferase activity by AhR agonist alone (AR [3]; MCDF 2 μM): did not significantly induce activity
